Data on twelve compounds can be found in BindingDB's records for doi:10.1021/jm020889p (2002).

Assay [1] has as its target Sigma non-opioid intracellular receptor 1 (Cavia porcellus) (UniProt Q60492). The assay can be described thus: Ability to displace [3H](+)-pentazocine from Sigma opioid receptor type 1 of guinea pig brain.
Assay [2] addresses Sigma-2 receptor (TMEM97) (Rattus norvegicus). Put plainly: Ability to displace [3H]ditolylguanidine in the presence of 100 nM (+)-pentazocine from Sigma opioid receptor type 2 of rat liver.

In general, Ki refers to the equilibrium dissociation constant of an inhibitor or competing ligand from its target.

Chain of Sigma non-opioid intracellular receptor 1 (Cavia porcellus) (Q60492 whole entry, looked up): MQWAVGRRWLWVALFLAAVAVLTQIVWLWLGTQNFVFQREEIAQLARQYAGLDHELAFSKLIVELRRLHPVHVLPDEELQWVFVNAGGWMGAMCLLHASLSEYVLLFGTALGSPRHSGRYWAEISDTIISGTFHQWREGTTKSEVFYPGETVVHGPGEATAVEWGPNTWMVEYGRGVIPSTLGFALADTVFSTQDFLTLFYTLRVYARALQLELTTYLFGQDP

The compound `N#CC1OC2(CCN(Cc3ccccc3)CC2)c2ccccc21` (configuration not stated) [1'-benzylspiro[1,3-dihydroisobenzofuran-1,4'-(hexahydropyridine)]-3-carbonitrile] came in with a Ki in assay [1] of 2.18 nM.

With `N#CCC1OC2(CCN(Cc3ccccc3)CC2)c2ccccc21` (configuration not stated) [1'-benzylspiro[1,3-dihydroisobenzofuran-1,4'-(hexahydropyridine)]-3-ylmethyl cyanide], the Ki was determined as 2.16 nM in assay [1] and 1660 nM in assay [2].

Regarding `OCC1Cc2ccccc2C2(CCN(Cc3ccccc3)CC2)O1` (configuration not stated) [1'-benzylspiro[3,4-dihydro-1H-isochromene-1,4'-(hexahydropyridine)]-3-ylmethanol], the figures for the Ki in assay [1] and in assay [2] were 7.16 nM and 2090 nM, respectively.

For `N#CCC1Cc2ccccc2C2(CCN(Cc3ccccc3)CC2)O1` (configuration not stated) [1'-benzylspiro[3,4-dihydro-1H-isochromene-1,4'-(hexahydropyridine)]-3-ylmethyl cyanide], the values for the Ki in assay [1] and in assay [2] were 15.9 nM and 4700 nM, respectively.

Regarding `CNCCC1Cc2ccccc2C2(CCN(Cc3ccccc3)CC2)O1` (configuration not stated) [1N-methyl-2-[1'-benzylspiro[3,4-dihydro-1H-isochromene-1,4'-(hexahydropyridine)]-3-yl]-1-ethanamine], the inhibition constant (Ki) in assay [1] is 148 nM; in assay [2] it was 4360 nM.

`CNC(=O)CC1Cc2ccccc2C2(CCN(Cc3ccccc3)CC2)O1` (configuration not stated) [1N-methyl-2-[1'-benzylspiro[3,4-dihydro-1H-isochromene-1,4'-(hexahydropyridine)]-3-yl]acetamide] showed a Ki in assay [1] of 170 nM.

Turning to `OCCC1Cc2ccccc2C2(CCN(Cc3ccccc3)CC2)O1` (configuration not stated) [2-[1'-benzylspiro[3,4-dihydro-1H-isochromene-1,4'-(hexahydropyridine)]-3-yl]-1-ethanol], the Ki in assay [1] was found to be 12.7 nM; in assay [2], 8460 nM.

As for `O=CCC1Cc2ccccc2C2(CCN(Cc3ccccc3)CC2)O1` (configuration not stated) [2-[1'-benzylspiro[3,4-dihydro-1H-isochromene-1,4'-(hexahydropyridine)]-3-yl]acetaldehyde], the Ki in assay [1] was determined as 55.1 nM; in assay [2], 9910 nM.

In the case of `CCOC(=O)C1OC2(CCN(Cc3ccccc3)CC2)c2ccccc21` (configuration not stated) [ethyl 1'-benzylspiro[1,3-dihydroisobenzofuran-1,4'-(hexahydropyridine)]-3-carboxylate], the Ki in assay [1] turned out to be 8.95 nM; in assay [2] it was 7130 nM.

As for `CCOC(=O)C1Cc2ccccc2C2(CCN(Cc3ccccc3)CC2)O1` (configuration not stated) [ethyl 1'-benzylspiro[3,4-dihydro-1H-isochromene-1,4'-(hexahydropyridine)]-3-carboxylate], the Ki in assay [1] was 9.33 nM; in assay [2] it was 10500 nM.

Take `CCOC(=O)CC1OC2(CCN(Cc3ccccc3)CC2)c2ccccc21` (configuration not stated) [ethyl 2-[1'-benzylspiro[1,3-dihydroisobenzofuran-1,4'-(hexahydropyridine)]-3-yl]acetate]: the Ki in assay [1] came out at 15.1 nM; in assay [2], 6770 nM.

Turning to `CCOC(=O)CC1Cc2ccccc2C2(CCN(Cc3ccccc3)CC2)O1` (configuration not stated) [ethyl 2-[1'-benzylspiro[3,4-dihydro-1H-isochromene-1,4'-(hexahydropyridine)]-3-yl]acetate], the values for the Ki in assay [1] and in assay [2] were 183 nM and 22700 nM, respectively.
